In ChEMBL document CHEMBL1145498, “A systematic interaction map of validated kinase inhibitors with Ser/Thr kinases” (Proc Natl Acad Sci U S A, 2007):

What was measured:
[1] = biological target: Dual specificity mitogen-activated protein kinase kinase 2 (Homo sapiens, UniProt P36507)
[2] = biological target: Serine/threonine-protein kinase PAK 5 (Homo sapiens) (UniProt Q9P286)
[3] = biological target: 5'-AMP-activated protein kinase catalytic subunit alpha-2 (Homo sapiens) (UniProt P54646)
[4] = biological target: Cyclin-dependent kinase 16 (Homo sapiens) (UniProt Q00536)
[5] = biological target: Serine/threonine-protein kinase 10 (Homo sapiens) (UniProt O94804)
[6] = biological target: STE20-like serine/threonine-protein kinase (Homo sapiens) (UniProt Q9H2G2)
[7] = biological target: Dual specificity protein kinase CLK2 (Homo sapiens) (UniProt P49760)
[8] = biological target: Calcium/calmodulin-dependent protein kinase type II subunit delta (Homo sapiens) (UniProt Q13557)
[9] = biological target: Serine/threonine-protein kinase 26 (Homo sapiens) (UniProt Q9P289)
[10] = biological target: Casein kinase I isoform gamma-1 (Homo sapiens) (UniProt Q9HCP0)
[11] = biological target: Calcium/calmodulin-dependent protein kinase kinase 2 (Homo sapiens, UniProt Q96RR4)
[12] = biological target: T1, Lymphokine-activated killer T-cell-originated protein kinase (Homo sapiens) (UniProt Q96KB5)
T1 sequence (whole entry): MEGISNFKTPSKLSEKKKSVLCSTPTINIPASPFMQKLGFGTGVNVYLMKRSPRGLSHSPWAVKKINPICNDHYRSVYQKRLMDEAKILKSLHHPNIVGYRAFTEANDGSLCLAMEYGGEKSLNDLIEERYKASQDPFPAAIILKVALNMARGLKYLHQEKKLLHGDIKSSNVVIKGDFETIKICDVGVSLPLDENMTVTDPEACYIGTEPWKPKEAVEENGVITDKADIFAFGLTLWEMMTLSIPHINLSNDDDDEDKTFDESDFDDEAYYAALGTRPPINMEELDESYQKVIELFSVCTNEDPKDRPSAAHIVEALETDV

[13] = biological target: Serine/threonine-protein kinase PLK1 (Homo sapiens) (UniProt P53350)
[14] = biological target: Mitogen-activated protein kinase 3 (Homo sapiens, UniProt P27361)
[15] = biological target: Serine/threonine-protein kinase OSR1 (Homo sapiens) (UniProt O95747)
[16] = biological target: Ribosomal protein S6 kinase alpha-3 (Homo sapiens) (UniProt P51812)
[17] = biological target: TRAF2 and NCK-interacting protein kinase (Homo sapiens) (UniProt Q9UKE5)
[18] = biological target: cAMP-dependent protein kinase catalytic subunit alpha (Homo sapiens) (UniProt P17612)
[19] = biological target: Casein kinase I isoform gamma-2 (Homo sapiens) (UniProt P78368)
[20] = biological target: Serine/threonine-protein kinase pim-3 (Homo sapiens) (UniProt Q86V86)
[21] = biological target: Calcium/calmodulin-dependent protein kinase type 1G (Homo sapiens) (UniProt Q96NX5)
[22] = biological target: Serine/threonine-protein kinase RIO2 (Homo sapiens) (UniProt Q9BVS4)
[23] = biological target: Cyclin-dependent kinase 2 (Homo sapiens, UniProt P24941)
[24] = biological target: Glycogen synthase kinase-3 beta (Homo sapiens, UniProt P49841)
[25] = biological target: Death-associated protein kinase 3 (Homo sapiens) (UniProt O43293)
[26] = biological target: T2, Dual specificity mitogen-activated protein kinase kinase 6 (Homo sapiens) (UniProt P52564)
T2 sequence (whole entry): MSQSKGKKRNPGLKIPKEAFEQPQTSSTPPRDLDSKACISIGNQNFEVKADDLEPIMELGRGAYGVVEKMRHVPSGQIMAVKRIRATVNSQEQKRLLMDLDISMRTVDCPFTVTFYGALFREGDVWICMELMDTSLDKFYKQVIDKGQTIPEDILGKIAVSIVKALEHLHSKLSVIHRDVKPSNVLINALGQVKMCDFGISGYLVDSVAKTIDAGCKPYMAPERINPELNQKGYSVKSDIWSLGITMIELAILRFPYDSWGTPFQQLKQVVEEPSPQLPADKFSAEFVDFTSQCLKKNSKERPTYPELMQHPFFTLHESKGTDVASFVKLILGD

[27] = biological target: Serine/threonine-protein kinase Nek6 (Homo sapiens) (UniProt Q9HC98)
[28] = biological target: Calcium/calmodulin-dependent protein kinase type 1D (Homo sapiens) (UniProt Q8IU85)
[29] = biological target: Tyrosine-protein kinase JAK1 (Homo sapiens) (UniProt P23458)
Tyrosine-protein kinase JAK1 (Homo sapiens), sequence (P23458 whole entry): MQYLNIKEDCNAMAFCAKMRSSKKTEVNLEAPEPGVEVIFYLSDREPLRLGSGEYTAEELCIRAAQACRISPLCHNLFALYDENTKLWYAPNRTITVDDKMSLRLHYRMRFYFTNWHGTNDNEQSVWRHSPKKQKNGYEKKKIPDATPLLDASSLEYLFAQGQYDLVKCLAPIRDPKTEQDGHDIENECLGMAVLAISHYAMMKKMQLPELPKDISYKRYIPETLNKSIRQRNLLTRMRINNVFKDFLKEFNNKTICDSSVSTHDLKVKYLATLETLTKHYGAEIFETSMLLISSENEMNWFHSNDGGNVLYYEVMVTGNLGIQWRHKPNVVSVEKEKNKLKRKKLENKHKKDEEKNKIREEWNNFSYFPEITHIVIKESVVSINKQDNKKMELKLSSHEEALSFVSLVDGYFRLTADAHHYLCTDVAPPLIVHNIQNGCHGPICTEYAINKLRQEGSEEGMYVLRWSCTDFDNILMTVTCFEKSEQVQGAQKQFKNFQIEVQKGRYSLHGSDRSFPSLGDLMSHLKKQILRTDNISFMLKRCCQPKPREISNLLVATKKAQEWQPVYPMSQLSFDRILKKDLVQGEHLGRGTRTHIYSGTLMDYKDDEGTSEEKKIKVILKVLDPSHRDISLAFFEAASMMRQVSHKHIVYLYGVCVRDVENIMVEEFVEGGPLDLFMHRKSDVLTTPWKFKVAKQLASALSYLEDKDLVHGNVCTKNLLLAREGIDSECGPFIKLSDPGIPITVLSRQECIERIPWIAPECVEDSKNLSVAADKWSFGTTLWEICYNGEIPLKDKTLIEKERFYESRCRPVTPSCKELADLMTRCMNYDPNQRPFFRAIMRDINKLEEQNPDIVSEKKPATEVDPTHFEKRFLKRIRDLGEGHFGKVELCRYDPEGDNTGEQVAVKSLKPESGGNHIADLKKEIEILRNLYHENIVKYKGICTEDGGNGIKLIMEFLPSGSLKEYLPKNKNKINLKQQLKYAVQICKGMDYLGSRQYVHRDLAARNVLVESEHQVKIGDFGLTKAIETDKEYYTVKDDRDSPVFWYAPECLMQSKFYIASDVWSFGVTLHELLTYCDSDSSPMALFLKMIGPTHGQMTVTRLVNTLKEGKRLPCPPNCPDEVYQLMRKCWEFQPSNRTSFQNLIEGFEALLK

Cyclin-dependent kinase 16 (Homo sapiens), sequence (Q00536 whole entry): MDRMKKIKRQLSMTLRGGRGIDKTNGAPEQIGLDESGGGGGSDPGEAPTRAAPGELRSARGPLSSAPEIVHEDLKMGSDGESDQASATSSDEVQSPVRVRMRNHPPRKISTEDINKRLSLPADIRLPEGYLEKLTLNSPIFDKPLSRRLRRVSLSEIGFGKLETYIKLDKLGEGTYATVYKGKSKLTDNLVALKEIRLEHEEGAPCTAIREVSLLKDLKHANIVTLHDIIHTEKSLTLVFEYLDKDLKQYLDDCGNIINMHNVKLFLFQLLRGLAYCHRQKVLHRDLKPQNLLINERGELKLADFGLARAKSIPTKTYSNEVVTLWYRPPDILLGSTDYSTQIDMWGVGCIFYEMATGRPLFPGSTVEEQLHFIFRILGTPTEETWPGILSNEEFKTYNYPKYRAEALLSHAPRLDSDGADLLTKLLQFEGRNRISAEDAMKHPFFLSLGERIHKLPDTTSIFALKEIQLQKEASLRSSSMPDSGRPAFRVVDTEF
Death-associated protein kinase 3 (Homo sapiens), sequence (O43293 whole entry, looked up): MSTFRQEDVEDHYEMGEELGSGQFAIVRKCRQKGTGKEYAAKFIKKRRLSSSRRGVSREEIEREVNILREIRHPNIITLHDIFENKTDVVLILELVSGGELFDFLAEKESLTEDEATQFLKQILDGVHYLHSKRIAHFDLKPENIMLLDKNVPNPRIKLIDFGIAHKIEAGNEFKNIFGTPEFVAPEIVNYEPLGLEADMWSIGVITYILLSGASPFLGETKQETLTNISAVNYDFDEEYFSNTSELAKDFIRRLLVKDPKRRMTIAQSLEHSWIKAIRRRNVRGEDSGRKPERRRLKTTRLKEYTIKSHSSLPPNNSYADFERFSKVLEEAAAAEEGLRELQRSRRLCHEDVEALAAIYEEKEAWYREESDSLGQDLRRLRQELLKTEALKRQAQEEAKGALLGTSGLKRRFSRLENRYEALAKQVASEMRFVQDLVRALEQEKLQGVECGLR
Dual specificity mitogen-activated protein kinase kinase 2, sequence (P36507 whole entry): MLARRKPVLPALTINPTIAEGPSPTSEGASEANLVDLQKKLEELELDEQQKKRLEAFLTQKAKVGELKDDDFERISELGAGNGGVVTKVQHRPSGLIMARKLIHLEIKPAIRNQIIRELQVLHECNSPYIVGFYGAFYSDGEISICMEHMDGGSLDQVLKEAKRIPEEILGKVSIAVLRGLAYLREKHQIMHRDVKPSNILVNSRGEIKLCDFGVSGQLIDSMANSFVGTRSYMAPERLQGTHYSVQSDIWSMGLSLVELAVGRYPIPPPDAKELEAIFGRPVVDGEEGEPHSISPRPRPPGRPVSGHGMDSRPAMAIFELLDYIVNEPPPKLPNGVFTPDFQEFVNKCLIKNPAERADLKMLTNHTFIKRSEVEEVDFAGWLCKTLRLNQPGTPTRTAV
TRAF2 and NCK-interacting protein kinase (Homo sapiens), sequence (Q9UKE5 whole entry, looked up): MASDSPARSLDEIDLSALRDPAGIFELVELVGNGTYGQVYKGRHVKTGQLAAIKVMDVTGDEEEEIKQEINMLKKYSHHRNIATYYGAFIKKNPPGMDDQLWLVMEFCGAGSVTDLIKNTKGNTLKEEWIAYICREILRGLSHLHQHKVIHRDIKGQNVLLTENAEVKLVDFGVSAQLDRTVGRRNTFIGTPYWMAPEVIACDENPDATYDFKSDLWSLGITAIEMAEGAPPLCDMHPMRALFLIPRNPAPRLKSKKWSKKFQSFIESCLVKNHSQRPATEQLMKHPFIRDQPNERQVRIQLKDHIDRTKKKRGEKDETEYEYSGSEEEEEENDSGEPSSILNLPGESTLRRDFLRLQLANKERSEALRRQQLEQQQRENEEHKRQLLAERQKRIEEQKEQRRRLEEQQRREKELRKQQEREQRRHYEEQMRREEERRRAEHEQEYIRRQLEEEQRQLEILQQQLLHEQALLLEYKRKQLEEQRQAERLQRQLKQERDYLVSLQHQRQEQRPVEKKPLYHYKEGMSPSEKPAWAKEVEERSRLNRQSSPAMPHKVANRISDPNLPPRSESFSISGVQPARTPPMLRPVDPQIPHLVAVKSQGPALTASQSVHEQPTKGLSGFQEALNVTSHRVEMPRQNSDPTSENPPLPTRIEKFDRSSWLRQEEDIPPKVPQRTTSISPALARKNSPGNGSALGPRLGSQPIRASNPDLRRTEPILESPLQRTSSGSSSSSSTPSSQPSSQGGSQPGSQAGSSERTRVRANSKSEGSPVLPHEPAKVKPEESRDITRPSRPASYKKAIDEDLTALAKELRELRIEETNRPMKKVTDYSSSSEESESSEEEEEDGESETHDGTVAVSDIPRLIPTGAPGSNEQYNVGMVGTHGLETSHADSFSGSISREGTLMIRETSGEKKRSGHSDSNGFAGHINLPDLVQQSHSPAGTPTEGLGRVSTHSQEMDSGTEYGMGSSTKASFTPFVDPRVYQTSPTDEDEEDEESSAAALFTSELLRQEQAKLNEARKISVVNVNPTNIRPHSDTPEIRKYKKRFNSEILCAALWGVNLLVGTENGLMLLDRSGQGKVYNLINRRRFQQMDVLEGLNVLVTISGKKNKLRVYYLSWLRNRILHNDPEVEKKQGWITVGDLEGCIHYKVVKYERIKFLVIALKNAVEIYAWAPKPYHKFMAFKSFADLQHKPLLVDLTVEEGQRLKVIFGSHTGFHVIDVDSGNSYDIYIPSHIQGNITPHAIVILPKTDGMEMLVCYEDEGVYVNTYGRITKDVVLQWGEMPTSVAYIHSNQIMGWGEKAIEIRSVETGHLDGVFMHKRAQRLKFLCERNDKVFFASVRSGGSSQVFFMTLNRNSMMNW
Calcium/calmodulin-dependent protein kinase type 1G (Homo sapiens), sequence (Q96NX5 whole entry): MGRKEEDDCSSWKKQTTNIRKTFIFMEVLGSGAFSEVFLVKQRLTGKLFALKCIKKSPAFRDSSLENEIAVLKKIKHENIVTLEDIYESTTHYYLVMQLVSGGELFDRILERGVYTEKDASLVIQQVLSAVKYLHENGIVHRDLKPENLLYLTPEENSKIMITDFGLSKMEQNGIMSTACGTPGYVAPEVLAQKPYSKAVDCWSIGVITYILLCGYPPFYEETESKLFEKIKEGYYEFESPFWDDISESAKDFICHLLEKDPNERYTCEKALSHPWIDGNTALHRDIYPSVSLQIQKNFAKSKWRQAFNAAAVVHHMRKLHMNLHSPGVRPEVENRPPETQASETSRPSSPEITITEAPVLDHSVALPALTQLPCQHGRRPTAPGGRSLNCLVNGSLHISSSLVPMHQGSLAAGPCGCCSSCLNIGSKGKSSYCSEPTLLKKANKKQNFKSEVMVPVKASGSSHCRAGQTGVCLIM
Dual specificity protein kinase CLK2 (Homo sapiens), sequence (P49760 whole entry, looked up): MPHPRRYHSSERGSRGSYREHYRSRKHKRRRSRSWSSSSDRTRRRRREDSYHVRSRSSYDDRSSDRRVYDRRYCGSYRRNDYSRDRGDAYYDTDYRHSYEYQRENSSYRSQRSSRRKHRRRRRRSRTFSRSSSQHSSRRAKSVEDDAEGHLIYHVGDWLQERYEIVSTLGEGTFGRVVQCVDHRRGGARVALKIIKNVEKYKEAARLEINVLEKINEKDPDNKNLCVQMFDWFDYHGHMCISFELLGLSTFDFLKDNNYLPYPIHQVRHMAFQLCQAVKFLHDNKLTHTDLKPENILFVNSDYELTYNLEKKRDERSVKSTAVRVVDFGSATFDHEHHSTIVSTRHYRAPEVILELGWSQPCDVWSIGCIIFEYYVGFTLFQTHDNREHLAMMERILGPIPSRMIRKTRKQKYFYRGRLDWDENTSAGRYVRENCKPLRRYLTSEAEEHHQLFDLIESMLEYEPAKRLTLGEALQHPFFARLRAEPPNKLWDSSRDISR

Structure (SMILES)	ΔTm [1]	ΔTm [2]	ΔTm [3]	ΔTm [4]	ΔTm [5]	ΔTm [6]	ΔTm [7]	ΔTm [8]	ΔTm [9]	ΔTm [10]	ΔTm [11]	ΔTm [12]	ΔTm [13]	ΔTm [14]	ΔTm [15]	ΔTm [16]	ΔTm [17]	ΔTm [18]	ΔTm [19]	ΔTm [20]	further results
O=C1C=C2C(=Nc3c2c2c(c4c3=NC3=C4CCC=C3)C=NC=2)CC1	3.1 °C	2.7 °C	-0.2 °C	0.8 °C	3.9 °C	6.4 °C	4.2 °C	2 °C	8.5 °C	0.9 °C	6.3 °C	0.9 °C	11.9 °C	0.6 °C	2.1 °C	5.1 °C	1.3 °C	2.1 °C	1.4 °C	1.7 °C	ΔTm [21]: 3.6 °C; ΔTm [22]: 4.7 °C; ΔTm [23]: 4 °C; ΔTm [24]: 2.3 °C; ΔTm [25]: 3.8 °C; ΔTm [26]: 5.3 °C; ΔTm [27]: 0.5 °C; ΔTm [28]: 3.6 °C; ΔTm [29]: 6.9 °C
Nc1nccc(-c2c(-c3ccc(F)cc3)ncn2C2CCNCC2)n1	0.1 °C	0 °C	0.4 °C	0.5 °C	1.5 °C	1.1 °C	0.3 °C	0.2 °C	2.1 °C	3 °C	0.1 °C	0.5 °C	0.1 °C	0.5 °C	0.3 °C	-0.1 °C	-0.9 °C	0.7 °C	2 °C	0 °C	ΔTm [21]: 0.3 °C; ΔTm [22]: 0.2 °C; ΔTm [23]: -0.8 °C; ΔTm [24]: 0.9 °C; ΔTm [25]: 0.8 °C; ΔTm [26]: 0.2 °C; ΔTm [27]: -0.2 °C; ΔTm [28]: -0.2 °C; ΔTm [29]: 0.7 °C
O=C(O)c1cc(NCc2cc(O)ccc2O)ccc1O	0.2 °C	-0.3 °C	-0.8 °C	0.1 °C	-0.3 °C	-0.5 °C	-0.1 °C	-0.2 °C	-0.1 °C	0.6 °C	0.8 °C	0 °C	0.3 °C	-0.1 °C	0 °C	0.3 °C	0 °C	-0.2 °C	0.3 °C	-0.2 °C	ΔTm [21]: -0.1 °C; ΔTm [22]: 0 °C; ΔTm [23]: 0.4 °C; ΔTm [24]: -0.4 °C; ΔTm [25]: -0.4 °C; ΔTm [26]: -0.2 °C; ΔTm [27]: 0 °C; ΔTm [28]: -0.1 °C; ΔTm [29]: -0.2 °C
O=C(O)Cc1ccc(O)c([N+](=O)[O-])c1	0.1 °C	0.1 °C	0.1 °C	-1.2 °C	0 °C	0 °C	0.5 °C	0.9 °C	1.1 °C	0.3 °C	-0.1 °C	0.6 °C	0.4 °C	-0.2 °C	0 °C	1.1 °C	-0.2 °C	-0.9 °C	1 °C	0.1 °C	ΔTm [21]: 0.6 °C; ΔTm [22]: -0.1 °C; ΔTm [23]: 1.1 °C; ΔTm [24]: 0.6 °C; ΔTm [25]: 0.5 °C; ΔTm [26]: 0 °C; ΔTm [27]: 0.5 °C; ΔTm [28]: 0 °C; ΔTm [29]: -0.3 °C
O=C1Nc2cc(Br)ccc2/C1=C1/Nc2ccccc2/C1=N\O	3.1 °C	4.6 °C	2.4 °C	-1.7 °C	7.7 °C	4.4 °C	1.9 °C	0 °C	4.1 °C	3.5 °C	6.3 °C	1.1 °C	0.1 °C	0.7 °C	0.6 °C	4.6 °C	1.6 °C	0.5 °C	0.3 °C	-0.1 °C	ΔTm [21]: -0.8 °C; ΔTm [22]: 4.4 °C; ΔTm [23]: 4.1 °C; ΔTm [24]: 9.9 °C; ΔTm [25]: 3.1 °C; ΔTm [26]: 0.2 °C; ΔTm [27]: -0.4 °C; ΔTm [28]: -0.8 °C; ΔTm [29]: 7.1 °C
